Experimental data as given in article PMC6272155, “Plasmin Regulation through Allosteric, Sulfated, Small Molecules” (Molecules, 2015).
Read-outs that look alike come from different tables or passages of the source.

How the values were obtained:
Assay type in all cases: biochemical
human Lys-plasmin = target: T1, human Lys-plasmin (Homo sapiens, UniProt P00747); test: Direct inhibition of human Lys-plasmin, chromogenic substrate (Spectrozyme PL) hydrolysis assay; conditions: for diminished potency relative to 32: 13-atom and 14-atom linkers vs 12-atom linker of 32; for IC50: human plasmin 20 nM, 50 mM Tris-HCl pH 7.4, 150 mM NaCl, 37 °C, Spectrozyme PL
T1 construct: purchased Haematologic Technologies (Essex Junction, VT, USA)
T1 sequence (P00747 581-810 limits assumed): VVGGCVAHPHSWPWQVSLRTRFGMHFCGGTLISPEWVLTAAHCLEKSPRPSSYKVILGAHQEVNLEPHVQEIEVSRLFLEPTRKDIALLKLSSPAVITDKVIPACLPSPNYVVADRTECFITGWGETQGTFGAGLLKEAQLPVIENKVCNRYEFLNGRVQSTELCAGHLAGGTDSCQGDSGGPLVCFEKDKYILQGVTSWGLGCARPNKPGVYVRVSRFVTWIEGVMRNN
T1 sequence (P00747 97-580 partner limits assumed): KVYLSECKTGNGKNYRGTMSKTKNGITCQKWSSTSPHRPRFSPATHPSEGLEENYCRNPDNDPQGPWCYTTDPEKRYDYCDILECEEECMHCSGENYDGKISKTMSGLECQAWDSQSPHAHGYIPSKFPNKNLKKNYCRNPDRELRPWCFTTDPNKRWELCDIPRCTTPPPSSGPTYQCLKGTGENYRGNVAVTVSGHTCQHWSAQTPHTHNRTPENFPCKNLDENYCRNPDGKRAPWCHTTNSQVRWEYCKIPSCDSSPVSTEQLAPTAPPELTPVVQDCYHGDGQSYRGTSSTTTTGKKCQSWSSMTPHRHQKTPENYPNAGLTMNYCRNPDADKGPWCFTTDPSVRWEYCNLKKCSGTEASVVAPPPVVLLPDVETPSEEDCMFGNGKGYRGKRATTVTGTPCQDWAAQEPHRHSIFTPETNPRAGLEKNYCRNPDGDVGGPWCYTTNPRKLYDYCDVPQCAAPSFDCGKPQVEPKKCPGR
Protocol: Important to emphasize here that the potency of NSGM-based inhibitors was evaluated by measuring their IC50's (X-axis), whereas the efficacy was assessed by measuring the overall change in residual plasmin activity (%) (ΔY = YM − Y0) (Y-axis).
Direct inhibition of human Lys-plasmin was measured using a chromogenic substrate hydrolysis assay on a microplate reader (FlexStation III, Molecular Devices, Sunnyvale, CA, USA), as reported earlier. Briefly, to each well of a 96-well microplate containing 85 µL of 50 mM Tris-HCl buffer, pH 7.4, containing 150 mM NaCl, 0.1% PEG8000, and 0.02% Tween80 at 37 °C was added 5 µL potential NSGM-based inhibitor (20–100 mM aqueous solution) (or vehicle alone) and 5 µL enzyme. The final concentration of the enzyme was 20 nM. After 5 min incubation, 5 µL of 1 mM Spectrozyme PL was rapidly added and the residual enzyme activity was measured from the initial rate of increase in A405. Relative residual enzyme activity (Y) as a function of the concentration of sulfated molecule was fitted using logistic equation 1 to obtain the potency (IC50), efficacy (ΔY) and Hill slope (HS) of inhibition. In this equation, YM and Y0 are the maximal and minimal values of Y: (1) Y = Y0+YM−Y0/1+10^(log[Inhibitor]0 − logIC50) ×HS […]
In this equation, Y is the ratio of residual plasmin activity in the presence of inhibitor to that in its absence (fractional residual activity). YM and Y0 are the maximum and minimum possible values of the fractional residual proteinase activity. The difference between these two values is used to evaluate the inhibitor’s efficacy to reduce the residual enzyme activity under the assay condition.
Direct inhibition of human plasmin by sulfated small molecules. Direct inhibition of plasmin was measured using a chromogenic substrate hydrolysis assay on a microplate reader (FlexStation III, Molecular Devices), as reported earlier. Briefly, to each well of a 96-well microplate containing […]
Tween80 at 37 °C was added 5 µL potential inhibitor (or vehicle alone) and 5 µL enzyme. The final concentration of the enzyme was 20 nM. After 5 min incubation, 5 µL of 1 mM Spectrozyme PL was rapidly added and the residual enzyme activity was measured from the initial rate of increase in A405.
Relative residual enzyme activity (Y, activity in the presence of inhibitor to that in its absence) as a function of the concentration of SPGG derivative was fitted using logistic Equation (1) to obtain the potency (IC50), efficacy (ΔY) and Hill slope (HS) of inhibition. In this equation, YM and Y0 are the maximal and minimal values of Y.

thrombin = thrombin (Homo sapiens, UniProt P00734); test: Direct inhibition of thrombin, chromogenic substrate (Spectrozyme TH) hydrolysis assay; conditions: pH 7.4, 37 °C; read-out: IC50 against thrombin
Protocol: (§1) The rationale behind targeting an allosteric site on plasmin was to achieve inhibition specificity over the closely related serine proteases. In contrast to active sites, allosteric sites are not as highly conserved and therefore present a powerful opportunity for discovering a selective modulator of enzyme function. […] Using appropriate small peptide-based chromogenic substrates, the fractional residual thrombin and factor Xa activities were measured under the physiological condition of pH 7.4 and 37 °C.
(§2) Briefly, to each well of a 96-well microplate containing 185 μL of 20–50 mM Tris-HCl buffer, pH 7.4, containing 100–150 mM NaCl, 0.1% PEG8000 and 0.02% Tween80 at either 25 °C (thrombin) or 37 °C (factor Xa) was added 5 μL of 10–20 mM inhibitor (or vehicle) and 5 μL of the enzyme. The final concentrations of the enzymes were 6 nM (thrombin) and 1.09 nM (factor Xa). After 10 min incubation, 5 μL 1.0 mM Spectrozyme TH or 2.5 mM Spectrozyme FXa, was rapidly added and the residual enzyme activity was measured from the initial rate of increase in A405. Relative residual enzyme activity (Y, activity in the presence of inhibitor to that in its absence) as a function of the concentration of inhibitor was measured.

factor Xa = factor Xa (Homo sapiens, UniProt P00742); test: Direct inhibition of factor Xa, chromogenic substrate (Spectrozyme FXa) hydrolysis assay
Chain of factor Xa (P00742 235-488 limits assumed): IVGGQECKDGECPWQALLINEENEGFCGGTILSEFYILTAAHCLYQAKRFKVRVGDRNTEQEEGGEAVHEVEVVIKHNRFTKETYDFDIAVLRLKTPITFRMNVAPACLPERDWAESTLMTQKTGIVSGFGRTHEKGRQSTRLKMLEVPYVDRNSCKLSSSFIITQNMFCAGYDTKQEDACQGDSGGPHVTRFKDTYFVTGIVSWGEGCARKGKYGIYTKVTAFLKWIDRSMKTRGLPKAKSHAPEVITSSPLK
Chain of factor Xa (P00742 41-179 partner limits assumed): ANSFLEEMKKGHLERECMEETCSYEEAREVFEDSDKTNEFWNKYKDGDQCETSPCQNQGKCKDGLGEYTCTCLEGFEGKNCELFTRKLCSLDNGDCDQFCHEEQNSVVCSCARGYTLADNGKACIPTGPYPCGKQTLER
Protocol: as §1, §2

[1] = pH 7.4, read-out: ΔY% (efficacy, YM − Y0), logistic fit, pH 7.4, 37 °C
[2] = logistic fit, pH 7.4, 37 °C, read-out: ΔY% (efficacy, YM − Y0)

Row | Compound | IC50 (human Lys-plasmin) [µM] | HS (Hill slope) (human Lys-plasmin; logistic fit, pH 7.4, 37 °C) | Emax (human Lys-plasmin; [1]) [%] | Emax (human Lys-plasmin; [2]) [%] | other results
1 | O=c1c(OS(=O)(=O)O)c(-c2ccc(OS(=O)(=O)O)c(OS(=O)(=O)O)c2)oc2cc(OS(=O)(=O)O)cc(OCc3cn(CCCCCCCCCCn4c(-c5ccc(OS(=O)(=O)O)cc5)nc5ccccc5c4=O)nn3)c12 [compound 34] | 130 ± 6 | 3.9 ± 1.0 | 83 ± 5 |  | diminished potency relative to 32 (human Lys-plasmin): ~ 3 fold
2 | O=c1c(OS(=O)(=O)O)c(-c2ccc(OS(=O)(=O)O)c(OS(=O)(=O)O)c2)oc2cc(OS(=O)(=O)O)cc(OCc3cn(CCCCCCCCCn4c(-c5ccc(OS(=O)(=O)O)cc5)nc5ccccc5c4=O)nn3)c12 [compound 33] | 128 ± 8 | 1.8 ± 0.4 | 89 ± 7 |  | diminished potency relative to 32 (human Lys-plasmin): ~ 3 fold
3 | O=S(=O)(O)OC[C@H]1O[C@@](COS(=O)(=O)O)(O[C@H]2O[C@H](COS(=O)(=O)O)[C@@H](OS(=O)(=O)O)[C@H](OS(=O)(=O)O)[C@H]2OS(=O)(=O)O)[C@@H](OS(=O)(=O)O)[C@@H]1OS(=O)(=O)O [compound 17, sucrose octasulfate, reference compound] |  |  |  |  | inhibition at 400 µM (human Lys-plasmin; 400 μM inhibitor, pH 7.4, 37 °C, n ≥ 2, read-out: plasmin inhibition in initial screening): ≤ 70%
4 | O=c1c(OS(=O)(=O)O)c(-c2ccc(OS(=O)(=O)O)c(OS(=O)(=O)O)c2)oc2cc(OS(=O)(=O)O)cc(OCCCOc3cc(OS(=O)(=O)O)cc4oc(-c5ccc(OS(=O)(=O)O)c(OS(=O)(=O)O)c5)c(OS(=O)(=O)O)c(=O)c34)c12 [compound 51] | ~2830 |  |  |  | loss in potency relative to 4-atom linker flavonoid homodimers (52, 54) (human Lys-plasmin): 37 fold
5 | O=c1c2ccccc2nc(-c2ccc(OS(=O)(=O)O)cc2)n1CCCCCCCCCCCCn1cc(Cn2c(-c3ccc(OS(=O)(=O)O)cc3)nc3ccccc3c2=O)nn1 [compound 47] | 89 ± 7 | 1.9 ± 0.6 |  | 98 ± 7 | 
6 | O=c1c(OS(=O)(=O)O)c(-c2ccc(OS(=O)(=O)O)c(OS(=O)(=O)O)c2)oc2cc(OS(=O)(=O)O)cc(OCc3cn(CCCCCCCn4c(-c5ccc(OS(=O)(=O)O)cc5)nc5ccccc5c4=O)nn3)c12 [compound 31, 3-(8-(4-((2-(3,4-O,O-Disulfonato-phenyl)-3,7-O,O-disulfonato-4-oxo-4H-chromen-5-yloxy)methyl)-1H-1,2,3-triazol-1-yl)heptyl)-2-(4-O-sulfonato-phenyl)quinazolin-4(3H)-one] | 56 ± 2 | 3.2 ± 0.8 | 87 |  | ΔY% (efficacy, YM − Y0) (human Lys-plasmin; logistic fit, pH 7.4, 37 °C): 87 ± 4%; IC50 (thrombin): > 500 µM; selectivity index for plasmin over factor Xa (factor Xa): about 5 fold; IC50 (factor Xa; pH 7.4, 37 °C, read-out: IC50 against factor Xa): > 250 µM
7 | O=c1c2ccccc2nc(-c2ccc(OS(=O)(=O)O)cc2)n1CCCCCCCCCn1cc(Cn2c(-c3ccc(OS(=O)(=O)O)cc3)nc3ccccc3c2=O)nn1 [compound 44] | 137 ± 11 | 1.0 ± 0.2 |  | 102 ± 9 | 
8 | O=c1c2ccccc2nc(-c2ccc(OS(=O)(=O)O)cc2)n1CCCCCCCCn1cc(Cn2c(-c3ccc(OS(=O)(=O)O)cc3)nc3ccccc3c2=O)nn1 [compound 43] | 183 ± 43 | 1.0 ± 0.3 |  | 94 ± 21 | decrease in inhibition potency relative to 31 and 32, respectively (human Lys-plasmin; tetrasulfated flavonoid replaced by para-sulfated quinazolinone): 3–4 fold
